Tests used:
[1] = biological target: T1, Muscarinic acetylcholine receptor M1 (Homo sapiens, UniProt P11229); assay type: functional, cell-based
T1 sequence (P11229 whole entry): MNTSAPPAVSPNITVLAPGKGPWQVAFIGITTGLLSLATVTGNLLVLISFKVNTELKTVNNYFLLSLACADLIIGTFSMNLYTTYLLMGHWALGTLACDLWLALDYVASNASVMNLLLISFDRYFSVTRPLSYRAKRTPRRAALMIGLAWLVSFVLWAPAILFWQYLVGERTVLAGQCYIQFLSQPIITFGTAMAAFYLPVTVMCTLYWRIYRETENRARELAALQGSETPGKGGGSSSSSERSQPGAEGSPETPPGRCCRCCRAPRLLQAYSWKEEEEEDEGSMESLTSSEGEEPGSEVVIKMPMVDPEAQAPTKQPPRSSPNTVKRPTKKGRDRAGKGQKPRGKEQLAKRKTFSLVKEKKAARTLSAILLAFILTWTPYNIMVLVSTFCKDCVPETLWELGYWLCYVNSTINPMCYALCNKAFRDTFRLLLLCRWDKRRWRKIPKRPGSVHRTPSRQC

[2] = biological target: T2, Muscarinic acetylcholine receptor M2 (Homo sapiens, UniProt P08172)
T2 sequence (P08172 whole entry): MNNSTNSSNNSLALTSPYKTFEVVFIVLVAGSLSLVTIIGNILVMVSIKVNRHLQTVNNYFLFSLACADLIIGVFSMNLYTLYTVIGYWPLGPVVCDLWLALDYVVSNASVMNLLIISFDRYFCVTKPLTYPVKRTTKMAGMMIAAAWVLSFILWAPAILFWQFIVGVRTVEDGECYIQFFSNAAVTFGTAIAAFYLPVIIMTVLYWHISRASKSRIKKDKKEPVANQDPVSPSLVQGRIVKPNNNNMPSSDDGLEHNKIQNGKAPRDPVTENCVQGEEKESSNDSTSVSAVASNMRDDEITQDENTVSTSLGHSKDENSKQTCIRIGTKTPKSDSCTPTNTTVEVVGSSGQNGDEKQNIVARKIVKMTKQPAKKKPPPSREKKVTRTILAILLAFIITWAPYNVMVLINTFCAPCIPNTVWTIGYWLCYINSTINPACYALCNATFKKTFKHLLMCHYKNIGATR

[3] = biological target: T3, Amine oxidase [flavin-containing] A (Homo sapiens, UniProt P21397); assay type: functional
T3 sequence (P21397 whole entry): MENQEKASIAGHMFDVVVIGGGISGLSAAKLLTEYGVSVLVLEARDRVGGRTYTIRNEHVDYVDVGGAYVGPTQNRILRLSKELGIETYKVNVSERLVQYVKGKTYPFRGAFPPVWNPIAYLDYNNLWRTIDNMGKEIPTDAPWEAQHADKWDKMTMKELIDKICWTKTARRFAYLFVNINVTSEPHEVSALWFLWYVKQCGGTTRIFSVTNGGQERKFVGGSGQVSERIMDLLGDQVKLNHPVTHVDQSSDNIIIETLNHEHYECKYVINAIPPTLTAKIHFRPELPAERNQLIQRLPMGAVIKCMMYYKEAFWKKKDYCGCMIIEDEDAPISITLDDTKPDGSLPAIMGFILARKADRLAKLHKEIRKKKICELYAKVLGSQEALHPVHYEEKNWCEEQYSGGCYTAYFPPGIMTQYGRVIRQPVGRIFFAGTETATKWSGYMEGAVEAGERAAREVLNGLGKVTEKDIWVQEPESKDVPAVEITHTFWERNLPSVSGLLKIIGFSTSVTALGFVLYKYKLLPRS

[4] = biological target: cGMP-inhibited 3',5'-cyclic phosphodiesterase 3A (Homo sapiens, UniProt Q14432); assay type: functional
[5] = biological target: 3',5'-cyclic-AMP phosphodiesterase 4A (Homo sapiens, UniProt P27815); assay type: functional
[6] = biological target: Prostaglandin G/H synthase 1 (Homo sapiens, UniProt P23219); assay type: functional
[7] = biological target: T4, Alpha-2B adrenergic receptor (Homo sapiens, UniProt P18089)
T4 sequence (P18089 whole entry): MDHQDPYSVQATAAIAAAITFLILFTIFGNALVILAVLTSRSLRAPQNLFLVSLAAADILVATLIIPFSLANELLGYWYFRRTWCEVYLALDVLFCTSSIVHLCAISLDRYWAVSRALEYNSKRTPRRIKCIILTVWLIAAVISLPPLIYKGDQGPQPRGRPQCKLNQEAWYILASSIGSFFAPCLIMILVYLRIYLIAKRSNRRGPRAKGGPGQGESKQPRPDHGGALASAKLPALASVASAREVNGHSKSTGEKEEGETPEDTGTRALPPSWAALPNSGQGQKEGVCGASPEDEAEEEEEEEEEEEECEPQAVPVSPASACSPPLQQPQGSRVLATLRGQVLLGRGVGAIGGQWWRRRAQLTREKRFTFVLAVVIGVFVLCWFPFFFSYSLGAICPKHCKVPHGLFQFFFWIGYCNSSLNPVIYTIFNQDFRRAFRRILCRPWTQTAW

[8] = biological target: Melanocortin receptor 4 (Homo sapiens, UniProt P32245)
Further: assay procedure not described here.

Chain of 3',5'-cyclic-AMP phosphodiesterase 4A (P27815 whole entry): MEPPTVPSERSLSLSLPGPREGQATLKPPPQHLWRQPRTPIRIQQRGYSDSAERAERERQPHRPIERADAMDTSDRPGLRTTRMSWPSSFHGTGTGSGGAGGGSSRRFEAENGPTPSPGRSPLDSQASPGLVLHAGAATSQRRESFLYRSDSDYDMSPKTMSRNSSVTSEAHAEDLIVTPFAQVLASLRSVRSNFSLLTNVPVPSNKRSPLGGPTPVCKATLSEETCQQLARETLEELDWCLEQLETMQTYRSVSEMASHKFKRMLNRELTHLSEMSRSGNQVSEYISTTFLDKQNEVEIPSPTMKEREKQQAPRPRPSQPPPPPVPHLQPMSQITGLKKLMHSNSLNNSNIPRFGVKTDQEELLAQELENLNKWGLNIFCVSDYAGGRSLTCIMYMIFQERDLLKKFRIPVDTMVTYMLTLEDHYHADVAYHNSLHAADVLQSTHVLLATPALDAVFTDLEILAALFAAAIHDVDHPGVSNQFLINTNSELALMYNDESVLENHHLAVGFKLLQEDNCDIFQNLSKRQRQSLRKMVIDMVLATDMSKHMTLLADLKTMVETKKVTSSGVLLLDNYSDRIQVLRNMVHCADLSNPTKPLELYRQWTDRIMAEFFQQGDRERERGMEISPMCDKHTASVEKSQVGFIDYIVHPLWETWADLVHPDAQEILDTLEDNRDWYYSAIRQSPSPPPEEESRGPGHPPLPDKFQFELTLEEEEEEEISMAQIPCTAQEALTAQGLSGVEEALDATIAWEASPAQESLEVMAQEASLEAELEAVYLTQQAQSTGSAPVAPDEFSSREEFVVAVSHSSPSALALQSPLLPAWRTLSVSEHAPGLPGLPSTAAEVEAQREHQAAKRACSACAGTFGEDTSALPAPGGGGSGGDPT
Chain of cGMP-inhibited 3',5'-cyclic phosphodiesterase 3A (Q14432 whole entry): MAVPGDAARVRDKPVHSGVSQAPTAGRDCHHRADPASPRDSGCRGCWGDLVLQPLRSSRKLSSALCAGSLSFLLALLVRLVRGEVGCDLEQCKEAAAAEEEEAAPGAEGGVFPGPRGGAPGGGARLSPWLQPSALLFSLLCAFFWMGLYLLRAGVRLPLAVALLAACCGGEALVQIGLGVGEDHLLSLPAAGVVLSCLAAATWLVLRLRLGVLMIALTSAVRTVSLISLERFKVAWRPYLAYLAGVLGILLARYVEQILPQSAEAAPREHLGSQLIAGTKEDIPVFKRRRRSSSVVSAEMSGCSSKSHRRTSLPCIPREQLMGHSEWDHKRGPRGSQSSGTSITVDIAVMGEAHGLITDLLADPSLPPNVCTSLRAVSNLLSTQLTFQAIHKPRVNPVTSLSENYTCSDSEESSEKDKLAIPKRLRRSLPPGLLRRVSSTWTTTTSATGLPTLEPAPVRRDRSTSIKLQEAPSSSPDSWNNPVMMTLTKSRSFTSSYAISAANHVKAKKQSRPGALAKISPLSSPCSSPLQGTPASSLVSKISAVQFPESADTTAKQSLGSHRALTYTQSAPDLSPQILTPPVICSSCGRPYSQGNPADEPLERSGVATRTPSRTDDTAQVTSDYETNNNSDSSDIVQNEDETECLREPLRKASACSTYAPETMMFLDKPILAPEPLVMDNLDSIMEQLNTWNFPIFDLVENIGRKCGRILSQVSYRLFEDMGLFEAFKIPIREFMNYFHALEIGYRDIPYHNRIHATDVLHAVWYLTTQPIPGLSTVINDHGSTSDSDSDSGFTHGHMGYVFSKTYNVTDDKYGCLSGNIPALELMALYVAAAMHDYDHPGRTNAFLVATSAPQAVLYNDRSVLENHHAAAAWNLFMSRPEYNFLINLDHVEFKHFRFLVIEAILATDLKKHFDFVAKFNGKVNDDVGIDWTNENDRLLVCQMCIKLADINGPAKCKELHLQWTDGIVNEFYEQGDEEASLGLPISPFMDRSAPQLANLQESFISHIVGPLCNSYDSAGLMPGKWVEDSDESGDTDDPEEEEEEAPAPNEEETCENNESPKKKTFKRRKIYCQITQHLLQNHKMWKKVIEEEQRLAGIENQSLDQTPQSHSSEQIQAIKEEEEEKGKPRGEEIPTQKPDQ
Chain of Prostaglandin G/H synthase 1 (P23219 whole entry): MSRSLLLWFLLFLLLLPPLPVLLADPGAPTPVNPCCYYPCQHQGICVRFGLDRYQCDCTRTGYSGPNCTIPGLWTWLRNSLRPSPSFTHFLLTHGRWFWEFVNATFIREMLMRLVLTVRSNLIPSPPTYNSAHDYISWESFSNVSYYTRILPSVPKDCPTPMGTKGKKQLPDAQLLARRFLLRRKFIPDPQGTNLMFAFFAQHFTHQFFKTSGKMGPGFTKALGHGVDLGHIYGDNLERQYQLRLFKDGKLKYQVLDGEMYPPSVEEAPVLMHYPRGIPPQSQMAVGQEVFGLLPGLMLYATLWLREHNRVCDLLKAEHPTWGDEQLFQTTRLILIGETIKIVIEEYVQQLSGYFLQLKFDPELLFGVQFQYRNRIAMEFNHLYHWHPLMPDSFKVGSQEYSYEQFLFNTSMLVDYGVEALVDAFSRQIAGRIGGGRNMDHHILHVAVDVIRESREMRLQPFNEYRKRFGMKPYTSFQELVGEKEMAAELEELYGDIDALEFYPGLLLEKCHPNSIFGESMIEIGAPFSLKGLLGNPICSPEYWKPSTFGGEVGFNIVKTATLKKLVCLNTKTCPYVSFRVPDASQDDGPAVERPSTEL
Chain of Melanocortin receptor 4 (P32245 whole entry): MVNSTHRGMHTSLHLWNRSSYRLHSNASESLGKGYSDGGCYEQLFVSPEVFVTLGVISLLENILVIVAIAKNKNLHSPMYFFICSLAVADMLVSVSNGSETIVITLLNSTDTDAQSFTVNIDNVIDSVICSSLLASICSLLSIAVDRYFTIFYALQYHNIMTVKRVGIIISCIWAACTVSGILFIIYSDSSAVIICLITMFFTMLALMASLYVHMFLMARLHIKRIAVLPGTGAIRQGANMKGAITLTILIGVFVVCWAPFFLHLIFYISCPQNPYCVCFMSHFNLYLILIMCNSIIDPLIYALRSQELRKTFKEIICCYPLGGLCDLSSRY

| Structure (SMILES) | AC50 [1] [µM] | AC50 [2] [µM] | AC50 [3] [µM] | AC50 [4] [µM] | AC50 [5] [µM] | AC50 [6] [µM] | AC50 [7] [µM] | AC50 [8] [µM] |
| --- | --- | --- | --- | --- | --- | --- | --- | --- |
| c1ccc2c(c1)CCc1ccccc1N2C1CN2CCC1CC2 (stereo not drawn) [QUINUPRAMINE] | 0.0076 | 0.0329 | > 30 | > 30 | > 30 | > 30 |  |  |
| CC[C@@H]([C@H](C)O)n1ncn(-c2ccc(N3CCN(c4ccc(OC[C@@H]5CO[C@@](Cn6cncn6)(c6ccc(F)cc6F)C5)cc4)CC3)cc2)c1=O [POSACONAZOLE] | > 1 | > 30 | > 30 | > 30 | > 30 | > 30 | > 30 |  |
| C[C@H](Cc1cc2c(c(C(N)=O)c1)N(CCCO)CC2)NCCOc1ccccc1OCC(F)(F)F [SILODOSIN] | > 30 | > 30 | > 30 | > 30 | > 30 | 15 |  |  |
| C=CCSCC1Nc2cc(Cl)c(S(N)(=O)=O)cc2S(=O)(=O)N1 (stereo not drawn) [ALTHIAZIDE] | > 30 | > 30 | > 30 | > 30 | > 30 | > 30 |  |  |
| CN(C)CCOC(c1ccccc1)c1ccc(Br)cc1 (stereo not drawn) [BROMODIPHENHYDRAMINE] | 1.49 | 1.42 | > 30 | > 30 | > 30 | > 30 |  |  |
| NC(=O)OCC(O)COc1ccc(Cl)cc1 (stereo not drawn) [CHLORPHENESIN CARBAMATE] | > 30 | > 30 | > 30 | > 30 | > 30 | > 30 |  |  |
| CCC(=O)O[C@]1(C(=O)SCF)[C@H](C)C[C@H]2[C@@H]3C[C@H](F)C4=CC(=O)C=C[C@]4(C)[C@@]3(F)[C@@H](O)C[C@@]21C [FLUTICASONE PROPIONATE] | > 30 | > 30 | > 30 | > 30 | > 30 | > 30 | > 30 | > 30 |
| CN1CCN(C2=Nc3ccccc3Oc3ccc(Cl)cc32)CC1 [LOXAPINE] |  |  | > 30 | > 30 | > 30 | > 30 |  | > 30 |
| CCC(=O)O[C@]1(C(=O)CCl)[C@@H](C)C[C@H]2[C@@H]3C[C@H](F)C4=CC(=O)C=C[C@]4(C)[C@@]3(F)[C@@H](O)C[C@@]21C [HALOBETASOL PROPIONATE] | 14.9 | > 30 | > 30 | > 30 | > 30 | > 30 |  |  |
| Cc1ncc(COP(=O)(O)O)c(C=O)c1O [PYRIDOXAL PHOSPHATE ANHYDROUS] | > 30 | > 30 | > 30 | > 30 | 19.5 | 6.68 |  |  |
| CC(N)Cc1ccc(O)cc1 (stereo not drawn) [HYDROXYAMPHETAMINE] | > 30 | > 30 | > 30 | > 30 | > 30 | > 30 |  |  |
| CC(C)N(CCNC(=O)CN1CCCC1=O)C(C)C | > 30 | > 30 | > 30 | > 30 | > 30 | > 30 |  |  |
| CC1=CCC(C(C)(C)O)CC1O (stereo not drawn) [SOBREROL] | > 30 | > 30 | > 30 | > 10 | > 30 | > 30 |  |  |
| NCC(CC(=O)O)c1ccccc1 (stereo not drawn) [PHENIBUT] | > 30 | > 30 | > 30 | > 30 | > 30 | > 30 |  |  |
| COc1cc(N2CCC(N3CCN(C)CC3)CC2)ccc1Nc1ncc(Cl)c(Nc2ccccc2P(C)(C)=O)n1 [BRIGATINIB] | > 30 | > 30 | > 30 | > 30 | > 30 | 26.3 |  |  |
| Cc1cc(N)c2ccccc2[n+]1CCCCCCCCCC[n+]1c(C)cc(N)c2ccccc21 | 0.611 | 0.0497 | 16.8 | 10 | 3.16 | 1.57 |  |  |
| CN1C(=O)/C(=N\NC(N)=S)c2ccccc21 [METHISAZONE] | > 3 | > 30 | > 30 | > 3 | > 30 | > 30 |  |  |
| CCN(CCCc1ccccc1)CCCc1ccccc1 [ALVERINE] | 0.198 | 0.134 | > 30 | > 30 | > 30 | > 30 |  |  |
| COc1cc2c(cc1OC)CC(=O)N(CCCN(C)C[C@H]1Cc3cc(OC)c(OC)cc31)CC2 [IVABRADINE] | > 30 | 3.35 | > 30 | > 30 | > 30 | > 30 |  |  |
| CC(N)C(O)c1ccccc1 (stereo not drawn) [PHENYLPROPANOLAMINE] |  |  |  |  |  |  | > 10 | > 30 |
| CCN(CC)C(=S)S [DITIOCARB] | > 1 | > 30 | > 30 | > 30 | > 30 | 10.3 |  |  |
| CCCc1nc(C(C)(C)O)c(C(=O)O)n1Cc1ccc(-c2ccccc2-c2nnn[nH]2)cc1 [OLMESARTAN] | > 30 | > 30 | > 30 | > 30 | > 30 | > 30 |  |  |
| CCOC(=O)[C@H](CCc1ccccc1)N[C@@H](C)C(=O)N(CC(=O)O)C1Cc2ccccc2C1 | > 30 | > 30 | > 30 | > 30 | > 30 | > 30 |  |  |
| Cc1cc(NC(=O)C2=C(O)c3ccccc3S(=O)(=O)N2C)no1 [ISOXICAM] | > 30 | > 30 | > 30 | > 30 | > 30 | > 30 |  |  |
| CCOC(=O)N1CSC[C@H]1C(=O)O [TELMESTEINE] | > 30 | > 30 | > 30 | > 30 | > 30 | > 30 |  |  |

Source: ChEMBL document CHEMBL5291721, “A preclinical secondary pharmacology resource illuminates target-adverse drug reaction associations of marketed drugs” (Nat Commun, 2023)
